From US20180057505A1, “BICYCLIC HETEROARYL COMPOUNDS USEFUL AS INHIBITORS OF THE PAR-2 SIGNALING PATHWAY” (VERTEX PHARMACEUTICALS INCORPORATED, priority 2015, published 2018)

How the values were obtained:
Assay type in all cases: cell-based
[1] = test system: UTP-stimulated Ca2+ response in HT-29 cells; experiment: Ca FLIPR TETRA assay, ANTAGONIST mode, activator 0.6 μM UTP; details: HT-29 cells, activator 0.6 μM UTP
How it was run: (§1)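 HT-29 cells plated overnight at 37 °C in 1% FBS/McCoy's, loaded with calcium 5 dye (45 min 37 °C, 15 min r.t.), then preincubated with compounds 30 min at r.t. before a fixed activator challenge. Intracellular Ca2+ read by FLIPR Tetra; a first read checks compound-alone activation.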

PAR2 (HT-29 cells) [2] = target: T1, PAR2 (HT-29 cells) (Homo sapiens, UniProt P55085); experiment: Ca FLIPR TETRA assay, ANTAGONIST mode, activator 8 μM SLIGKV; details: HT-29 cells, activator 8 μM SLIGKV
T1 construct: host or cells: HT-29
T1 sequence (P55085 26-397): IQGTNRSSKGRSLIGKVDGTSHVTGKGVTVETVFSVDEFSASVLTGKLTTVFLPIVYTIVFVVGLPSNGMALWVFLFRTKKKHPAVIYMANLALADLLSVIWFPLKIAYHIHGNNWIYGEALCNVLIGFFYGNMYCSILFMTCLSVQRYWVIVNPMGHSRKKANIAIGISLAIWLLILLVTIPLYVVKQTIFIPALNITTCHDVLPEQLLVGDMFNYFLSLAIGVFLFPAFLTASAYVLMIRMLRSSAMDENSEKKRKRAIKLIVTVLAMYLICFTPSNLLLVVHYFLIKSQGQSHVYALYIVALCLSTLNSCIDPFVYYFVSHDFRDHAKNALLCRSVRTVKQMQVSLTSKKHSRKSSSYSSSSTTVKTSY
How it was run: as §1

[3] = test system: Thrombin-stimulated Ca2+ response in HT-29 cells; experiment: Ca FLIPR TETRA assay, ANTAGONIST mode, activator 1 U/mL Thrombin; details: HT-29 cells, activator 1 U/mL Thrombin
How it was run: as §1

PAR2 (HT-29 cells) [4] = target: T1, PAR2 (HT-29 cells); experiment: Ca FLIPR TETRA assay, ANTAGONIST mode, activator 3.1 U/mL trypsin; details: HT-29 cells, activator 3.1 U/mL trypsin
How it was run: as §1

[5] = maximal antagonist concentration per Method (A: 0.1, 1 or 2 μM; B: 50 μM)
[6] = Method A: maximal concentration of antagonist 0.1, 1 or 2 μM

SMILES | IC50 ([1]; Homo sapiens) [nM] | IC50 (PAR2 (HT-29 cells) [2]; [5]) [nM] | IC50 ([3]; Homo sapiens) [nM] | IC50 (PAR2 (HT-29 cells) [4]; [5]) [nM] | IC50 (PAR2 (HT-29 cells) [2]; [6]) [nM] | IC50 (PAR2 (HT-29 cells) [4]; [6]) [nM] | IC50 [1] [nM] | IC50 [3] [nM]
CC(C)c1cc(-c2ccc(F)cc2)nc2cc(C(=O)N3CCN(C(=O)[C@@H](C)O)CC3)oc12 [Example I-93] | 29000 | 18000 | 25000 | 16000 |  |  |  | 
CC(C)(O)C(=O)N1CCN(C(=O)c2cc3nc(-c4ccc(F)cc4)cc(C4CC4)c3o2)C(C)(C)C1 [Example I-5] | 8800 | 120 | 11000 | 160 |  |  |  | 
Cc1ccc(N2CCN(C(=O)c3cc4nc(-c5ccc(Cl)c(F)c5)cc(C(C)(C)C)c4o3)C(C)(C)C2)nc1C(=O)O [Example I-487] | > 2000 |  | > 2000 |  | 0.2 | 0.3 |  | 
CC1(O)CC(C(=O)C2CCN(C(=O)c3cc4nc(-c5ccc(F)cc5)cc(C5(C#N)CC(F)(F)C5)c4o3)C(C)(C)C2)C1 (stereo not drawn) [Example I-204] |  | 6 |  | 4 |  |  | > 1000 | > 1000
C[C@H]1CN(C(=O)c2cc3nc(-c4ccc(F)cc4)cc(C4(C)CC4)c3o2)CCN1C(=O)C(O)C1CC1 (stereo partly drawn) [Example I-111] | 12000 | 56.5 | 19000 | 41 |  |  |  | 
Cc1cnc(N2CCN(C(=O)c3cc4nc(-c5ccc(Cl)cc5)cc(C(C)(C)C)c4o3)C(C)(C)C2)nc1C(=O)O [Example I-521] | > 2000 |  | > 2000 |  | 0.7 | 1.2 |  | 
CC(C)(C)c1cc(-c2ccc(Cl)cc2)nc2cc(C(=O)N3CCN(C(=O)[C@H]4C[C@@](C)(O)C4)CC3(C)C)oc12 [Example I-159] | > 1000 | 0.6 | > 1000 | 1.1 |  |  |  | 
CC(C)(C)c1cc(-c2ccc(Cl)cc2)nc2cc(C(=O)N3CCN(C(=O)CCC(=O)O)CC3(C)C)oc12 [Example I-420] | > 1250 |  | > 1250 |  | 4.6 | 9.8 |  | 
CC1(c2cc(-c3ccc(F)cc3)nc3cc(C(=O)N4CCN(C(=O)C5(O)CC5)CC4(C)C)oc23)CC1 [Example I-26] | 7000 | 6.1 | 4800 | 8 |  |  |  | 
CC1(C)CCC(c2cc(C(C)(C)C)c3oc(C(=O)N4CCN(c5cccc(-c6nnn[nH]6)n5)CC4(C)C)cc3n2)CC1 [Example I-345] | > 2000 |  | > 2000 |  | 0.3 | 0.7 |  | 
CC(C)c1cc(-c2ccc(F)cc2)nc2cc(C(=O)N3CCN(C(=O)C4(O)CCC4)[C@@H](C)C3)oc12 [Example I-89] | 11000 | 1000 | 13000 | 1100 |  |  |  | 
Cc1c[nH]nc1N1CCN(C(=O)c2cc3nc(C4CCC(C)(C)CC4)cc(C(C)(C)C)c3o2)C(C)(C)C1=O [Example I-313] | > 2000 |  | > 2000 |  | 75 | 310 |  | 
CC(C)(C(=O)O)C(=O)N1CCN(C(=O)c2cc3nc(-c4ccc(F)cc4)cc(C(C)(C)C)c3o2)C(C)(C)C1 [Example I-195] | > 1000 | 96 | > 1000 | 233 |  |  |  | 
CC(C)(C)c1cc(-c2ccc(Cl)cc2)nc2cc(C(=O)N3CCN(C(=O)c4nnc[nH]4)CC3(C)C)oc12 [Example I-169] | > 1000 | 0.9 | > 1000 | 2.4 |  |  |  | 
CC(C)(C)c1cc(-c2ccc(Cl)c(F)c2)nc2cc(C(=O)N3CCC(CC(=O)O)CC3(C)C)oc12 (stereo not drawn) [Example I-299] | 1700 |  | > 2000 |  | 0.2 | 0.2 |  | 
CC(C)(C)c1cc(-c2ccc(Cl)cc2)nc2cc(C(=O)N3CCN(C(=O)C4CCC(C(=O)O)O4)CC3(C)C)oc12 (stereo not drawn) [Example I-256] | > 2000 | 22 | > 2000 | 31 |  |  |  | 
CC(C)c1cc(-c2ccc(F)cc2)nc2cc(C(=O)N3CCN(C(=O)C(C)(C)O)CC3)oc12 [Example I-96] | 14000 | 13000 | 17000 | 12000 |  |  |  | 
CC(C)(C)c1cc(-c2ccc(Cl)cc2)nc2cc(C(=O)N3CCN(c4ccn[nH]4)C(=O)C3(C)C)oc12 [Example I-407] | > 2000 |  | > 2000 |  | 17 | 17 |  | 

SMILES | IC50 ([1]; Homo sapiens) [nM] | IC50 (PAR2 (HT-29 cells) [2]; [5]) [nM] | IC50 ([3]; Homo sapiens) [nM] | IC50 (PAR2 (HT-29 cells) [4]; [5]) [nM] | IC50 (PAR2 (HT-29 cells) [2]; [6]) [nM] | IC50 (PAR2 (HT-29 cells) [4]; [6]) [nM] | IC50 [1] [nM] | IC50 [3] [nM]
CC1(C)CCC(c2cc(C(C)(C)C)c3oc(C(=O)N4CCN(C(=O)[C@H]5CC[C@](C)(C(=O)O)CC5)CC4(C)C)cc3n2)CC1 [Example I-306] | 1800 |  | 1400 |  | 4.7 | 17 |  | 
CC(C)(C)c1cc(C2CC3(CCC3)C2)nc2cc(C(=O)N3CCN(C(=O)[C@@H]4CNCCO4)CC3(C)C)oc12 [Example I-444] | > 2000 |  | > 2000 |  | 65 | 76 |  | 
Cc1ncc(S(=O)(=O)N2CCN(C(=O)c3cc4nc(-c5ccc(F)cc5)cc(C(C)C)c4o3)C(C)(C)C2)n1C [Example I-145] | > 1000 | 40 | > 1000 | 42 |  |  |  | 
Cc1nc(C(=O)O)cnc1N1CCN(C(=O)c2cc3nc(-c4ccc(Cl)cc4)cc(C(C)(C)C)c3o2)C(C)(C)C1 [Example I-392] | > 2000 |  | > 2000 |  | 3.8 | 2.8 |  | 
CC1(c2cc(-c3ccc(F)cc3)nc3cc(C(=O)N4CCN(C(=O)[C@H](O)C5CCCCC5)CC4(C)C)oc23)CC1 [Example I-40] | 30000 | 5 | 37000 | 7.3 |  |  |  | 
CN1CCN(C(=O)c2cc3nc(-c4ccc(Cl)c(F)c4)cc(C(C)(C)C)c3o2)C(C)(C)CC1=O [Example I-522] | > 2000 |  | > 2000 |  | 2.5 | 2.6 |  | 
CC(C)c1cc(-c2ccc(F)cc2)nc2cc(C(=O)N3CCN(C(=O)C4(O)CCC4)C[C@H]3C)oc12 [Example I-97] | 15000 | 4100 | 18000 | 5100 |  |  |  | 
Cc1cc(-c2cc(C(C)(C)C)c3oc(C(=O)N4CCN(C(=O)[C@H]5C[C@@](C)(O)C5)CC4(C)C)cc3n2)ccc1F [Example I-163] | > 1000 | 2.9 | > 1000 | 3.6 |  |  |  | 
CC(C)(C)c1cc(-c2ccc(Cl)c(F)c2)nc2cc(C(=O)N3CCN(c4cccnc4)CC3(C)C)oc12 [Example I-267, [7-tert-butyl-5-(4-chloro-3-fluoro-phenyl)furo[3,2-b]pyridin-2-yl]-[2,2-dimethyl-4-(3-pyridyl)piperazin-1-yl]methanone] | > 2000 | 33 | > 2000 | 25 |  |  |  | 
CC1(C)CCC(c2cc(C(C)(C)C)c3oc(C(=O)N4CCN(c5nc(C(=O)O)co5)CC4(C)C)cc3n2)CC1 [Example I-450] | > 1010 |  | > 1010 |  | 0.4 | 0.8 |  | 
Cc1nc(N2CCN(C(=O)c3cc4nc(C5CCC(C)(C)CC5)cc(C(C)(C)C)c4o3)C(C)(C)C2)ccc1C(=O)O [Example I-496] | > 2000 |  | > 2000 |  | 0.4 | 0.6 |  | 
CC(C)(C)c1cc(-c2ccc(Cl)c(F)c2)nc2cc(C(=O)N3CCN(c4nc(-c5ccccc5)ccc4C(=O)O)CC3(C)C)oc12 [Example I-516] | > 2000 |  | > 2000 |  | 1.8 | 2.7 |  | 
CC(C)(C)c1cc(-c2ccc(Cl)c(F)c2)nc2cc(C(=O)N3CCN(C(=O)[C@@H]4CCC[C@H](C(=O)O)C4)CC3(C)C)oc12 [Example I-375] | > 2000 |  | > 2000 |  | 0.3 | 0.7 |  | 
CC(C)(C)c1cc(-c2ccc(F)cc2)nc2cc(C(=O)N3CCNC(=O)C3(C)C)oc12 [Example I-149] | > 1000 | 7.6 | > 1000 | 9.6 |  |  |  | 
CC1(C)CCC(c2cc(C(C)(C)C)c3oc(C(=O)N4CCN(C(=O)CC(C)(C)C(=O)O)CC4(C)C)cc3n2)CC1 [Example I-416] | > 1630 |  | > 1630 |  | 0.4 | 0.7 |  | 
CC(C)(C)c1cc(-c2ccc(Cl)cc2)nc2cc(C(=O)N3CCN(c4nc(C(=O)O)co4)CC3(C)C)oc12 [Example I-481] | > 1250 |  | > 1250 |  | 0.3 | 0.4 |  | 
Cc1cncc(N2CCN(C(=O)c3cc4nc(-c5ccc(Cl)cc5)cc(C(C)(C)C)c4o3)C(C)(C)C2)n1 [Example I-387] | > 2000 |  | > 2000 |  | 12 | 10 |  | 
CC(C)(C)c1cc(-c2ccc(Cl)c(F)c2)nc2cc(C(=O)N3CCN(c4ncccn4)C(=O)C3(C)C)oc12 [Example I-361] | > 2000 |  | > 2000 |  | 2.8 | 4.6 |  | 
